In US12649733B2, “3,6-diamino-pyridazin-3-yl derivatives, pharmaceutical compositions containing them and their uses as pro-apoptotic agents” (LES LABORATOIRES SERVIER, priority 2019, dated 2026):

Experiments:
MOLT-4 cells = assay: MOLT-4 cell viability, MTT assay; type: cell-based; settings: Homo sapiens, MOLT-4, 48 h, 48 h exposure
Summary of the method: (§1)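 Viability read by MTT reduction (OD 540 nm after overnight SDS/HCl lysis) after 48 h compound treatment of cells in RPMI 1640/10% FBS. Triplicates at nine concentrations, 3.16-fold apart; four-parameter curve fitting yields IC50.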

H146 cells = assay: H146 cell viability, MTT assay; type: cell-based; settings: Homo sapiens, NCI-H146, 48 h, 48 h exposure
Summary of the method: as §1

BCLXL [1] = molecular target: T1, BCLXL (Homo sapiens, UniProt Q07817, V10N/V9A); assay: AlphaLISA assay (BIM peptide displacement); type: binding; settings: 20 pM protein, 1 nM peptide
T1 sequence (Q07817 with tags, fused parts or gaps V9A/V10N): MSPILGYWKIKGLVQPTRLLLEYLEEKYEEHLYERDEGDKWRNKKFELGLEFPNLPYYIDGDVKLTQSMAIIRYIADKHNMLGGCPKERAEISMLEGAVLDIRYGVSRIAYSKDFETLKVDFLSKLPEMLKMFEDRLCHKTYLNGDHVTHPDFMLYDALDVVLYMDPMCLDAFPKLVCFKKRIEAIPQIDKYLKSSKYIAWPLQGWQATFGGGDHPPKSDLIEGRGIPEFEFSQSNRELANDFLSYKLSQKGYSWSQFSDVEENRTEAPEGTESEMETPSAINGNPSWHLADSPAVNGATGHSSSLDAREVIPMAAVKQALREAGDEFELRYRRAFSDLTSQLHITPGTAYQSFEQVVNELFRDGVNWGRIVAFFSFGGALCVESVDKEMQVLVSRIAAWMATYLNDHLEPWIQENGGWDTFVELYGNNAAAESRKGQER
Procedure: AlphaLISA assay measures an increase in alpha signal upon binding biotinylated GST(1-218)-(FACTOR_XA)-hs ? (2-209)(SEQ ID:02—GST UniProtKB® primary accession number P08515 and BCLXL UniProtKB® primary accession number Q07817-1) coupled to a Streptavidin labeled Alpha donor bead to N-terminally labeled peptide derived from BIM (Fluorescein-betaAla-Ahx-SEQID:05, wherein SEQ ID:05 is […]) coupled to an Anti-FTIC AlphaLISA acceptor bead.
GST(1-218)(FACTOR_XA)-hs ? (2-209) was biotinylated in 50 mM phosphate buffer using a 20 fold excess of EZ Link NHS-LC-Biotin (thermoFisher catalogue number 21336) overnight at 4° C.
The addition of a compound which binds competitively to the same site as the peptide will result in an decrease in the Alpha signal of the available donor bead-protein-peptide-acceptor bead complex due to displacement of the peptide.
An 11-point serial dilution of each compound was prepared in DMSO, the final buffer conditions were 10 mM 4-(2-hydroxyethyl)-1-piperazineethanesulfonic acid [HEPES], 150 mM NaCl, 0.05% Tween 20, pH 7.4 and 4% DMSO. The final protein concentration in the assay was 20 pM with the peptide present at 1 nM). Alpha beads were used at a final concentration of 5 ug/mL. The experiments were incubated for overnight at 23° C. after acceptor bead addition. Finally the donor bead is added and incubated for 2 hours at 23° C. before Alpha signal measured on a Biotek Synergy2 plate reader (Excitation 680 nm, emission 615 nm).

BCLXL [2] = molecular target: T1, BCLXL; assay: Fluorescence polarisation assay (PUMA-based probe displacement); type: binding; note: 20 nM protein, 10 nM fluorescent probe

Cc1c(Nc2nc(C(=O)O)c(CCCOc3ccc(C#CCN(C)C)cc3F)s2)nnc(Nc2nc3ccccc3s2)c1C [Example 3, 2-({6-[(1,3-Benzothiazol-2-yl)amino]-4,5-dimethylpyridazin-3-yl}amine)-5-(3-{4-[3-(dimethylamino)prop-1-yn-1-yl]-2-fluorophenoxy}propyl)-1,3-thiazole-4-carboxylic acid]
IC50 (MOLT-4 cells): 90 nM | IC50 (H146 cells): 42 nM | IC50 (BCLXL [1]): 0.096 nM | Ki (BCLXL [2]): 1.9 nM

COCCCN(c1cc(C)c(Nc2nc3ccccc3s2)nn1)c1nc(C(=O)O)c(CCCOc2ccc(C#CCN(C)C)cc2F)s1 [Example 54, 2-({6-[(1,3-Benzothiazol-2-yl)amino]-5-methylpyridazin-3-yl}(3-methoxypropyl)amino)-5-(3-{4-[3-(dimethylamino)prop-1-yn-1-yl]-2-fluorophenoxy}propyl)-1,3-thiazole-4-carboxylic acid]
IC50 (MOLT-4 cells): 5.07 nM | IC50 (H146 cells): 35.2 nM | IC50 (BCLXL [1]): 0.025 nM | Ki (BCLXL [2]): 1.4 nM

Cc1cc(N(C)c2nc(C(=O)O)c(CCCOc3ccccc3F)s2)nnc1Nc1nc2ccccc2s1 [Example 59, 2-({6-[(1,3-Benzothiazol-2-yl)amino]-5-methylpyridazin-3-yl}(methyl)amino)-5-[3-(2-fluorophenoxy)propyl]-1,3-thiazole-4-carboxylic acid]
IC50 (MOLT-4 cells): 76.1 nM | IC50 (H146 cells): 271 nM | IC50 (BCLXL [1]): 0.14 nM | Ki (BCLXL [2]): < 1 nM

COCCCc1sc(N(C)c2cc(C)c(Nc3nc4ccccc4s3)nn2)nc1C(=O)O [Example 60, 2-({6-[(1,3-Benzothiazol-2-yl)amino]-5-methylpyridazin-3-yl}(methyl)amino)-5-(3-methoxypropyl)-1,3-thiazole-4-carboxylic acid]
IC50 (MOLT-4 cells): 2740 nM | IC50 (H146 cells): 5800 nM | IC50 (BCLXL [1]): 0.96 nM | Ki (BCLXL [2]): 1.5 nM

Cc1cc(N(C)c2nc(C(=O)O)c(CCCOc3ccccc3)s2)nnc1Nc1nc2ccccc2s1 [Example 63, 2-({6-[(1,3-Benzothiazol-2-yl)amino]-5-methylpyridazin-3-yl}(methyl)amino)-5-(3-phenoxypropyl)-1,3-thiazole-4-carboxylic acid]
IC50 (MOLT-4 cells): 85.3 nM | IC50 (H146 cells): 205 nM | IC50 (BCLXL [1]): 0.1 nM | Ki (BCLXL [2]): < 1 nM

COCCCN(c1cc(C)c(Nc2nc3ccccc3s2)nn1)c1nc(C(=O)O)c(CCCOc2ccccc2)s1 [Example 65, 2-{[6-[(1,3-Benzothiazol-2-yl)amino]-5-methylpyridazin-3-yl}(3-methoxypropyl)amino)-5-(3-phenoxypropyl)-1,3-thiazole-4-carboxylic acid]
IC50 (MOLT-4 cells): 236 nM | IC50 (H146 cells): 865 nM | IC50 (BCLXL [1]): 1 nM | Ki (BCLXL [2]): < 1 nM

Cc1cc(N(CCC(O)CO)c2nc(C(=O)O)cs2)nnc1Nc1nc2ccccc2s1 (stereo not shown) [Example 85, 2-[[6-(1,3-Benzothiazol-2-ylamino)-5-methyl-pyridazin-3-yl]-(3,4-dihydroxybutyl)amino]thiazole-4-carboxylic acid]
IC50 (MOLT-4 cells): > 15000 nM | IC50 (H146 cells): > 15000 nM | IC50 (BCLXL [1]): 12 nM | Ki (BCLXL [2]): < 1 nM

Cc1cc(N(C)c2nc(C(=O)O)c(C3CCN(C(=O)c4ccccc4)CC3)s2)nnc1Nc1nc2ccccc2s1 [Example 89, 5-(1-Benzoylpiperidin-4-yl)-2-({6-[(1,3-benzothiazol-2-yl)amino]-5-methylpyridazin-3-yl}(methyl)amino)-1,3-thiazole-4-carboxylic acid]
IC50 (MOLT-4 cells): 13100 nM | IC50 (H146 cells): > 15000 nM | IC50 (BCLXL [1]): 150 nM | Ki (BCLXL [2]): 160 nM

Cc1cc(N(C)c2ccc(-c3cnn(CC45CC6CC(CC(C6)C4)C5)c3C)c(C(=O)O)n2)nnc1Nc1nc2ccccc2s1 [Example 90, 3-{1-[(Adamantan-1-yl)methyl]-5-methyl-1H-pyrazol-4-yl}-6-({6-[(1,3-benzothiazol-2-yl)amino]-5-methylpyridazin-3-yl}(methyl)amino)pyridine-2-carboxylic acid]
IC50 (MOLT-4 cells): 23.3 nM | IC50 (H146 cells): 201 nM | IC50 (BCLXL [1]): 0.023 nM | Ki (BCLXL [2]): < 1 nM

Cc1cc(N(C)c2nc(C(=O)O)c(C3CCN(c4ccccc4)CC3)s2)nnc1Nc1nc2ccccc2s1 [Example 91, 2-({6-[(1,3-Benzothiazol-2-yl)amino]-5-methylpyridazin-3-yl}(methyl)amino)-5-(1-phenylpiperidin-4-yl)-1,3-thiazole-4-carboxylic acid]
IC50 (MOLT-4 cells): 1130 nM | IC50 (H146 cells): 5390 nM | IC50 (BCLXL [1]): 5.3 nM | Ki (BCLXL [2]): 6.4 nM

Cc1cc(N(C)c2nc(C(=O)O)c(C3CCN(C(=O)Cc4ccccc4)CC3)s2)nnc1Nc1nc2ccccc2s1 [Example 96, 2-({6-[(1,3-Benzothiazol-2-yl)amino]-5-methylpyridazin-3-yl}(methyl)amino)-5-[1-(2-phenylacetyl)piperidin-4-yl]-1,3-thiazole-4-carboxylic acid]
IC50 (BCLXL [1]): 270 nM | Ki (BCLXL [2]): 220 nM

CC(=O)N1CCC(c2sc(N(C)c3cc(C)c(Nc4nc5ccccc5s4)nn3)nc2C(=O)O)CC1 [Example 97, 5-(1-Acetylpiperidin-4-yl)-2-({6-[(1,3-benzothiazol-2-yl)amino]-5-methylpyridazin-3-yl}(methyl)amino)-1,3-thiazole-4-carboxylic acid]
IC50 (BCLXL [1]): 210 nM | Ki (BCLXL [2]): 130 nM

Cc1cc(N(C)c2nc(C(=O)O)c(C3CN(C(=O)Cc4ccccc4)C3)s2)nnc1Nc1nc2ccccc2s1 [Example 138, 2-({6-[(1,3-Benzothiazol-2-yl)amino]-5-methylpyridazin-3-yl}(methyl)amino)-5-[1-(2-phenylacetyl)azetidin-3-yl]-1,3-thiazole-4-carboxylic acid]
IC50 (BCLXL [1]): 11 nM | Ki (BCLXL [2]): 29 nM

Cc1cc(N(C)c2nc(C(=O)O)c(C3CNC3)s2)nnc1Nc1nc2ccccc2s1 [Example 139, 5-(Azetidin-3-yl)-2-({6-[(1,3-benzothiazol-2-yl)amino]-5-methylpyridazin-3-yl}(methyl)amino)-1,3-thiazole-4-carboxylic acid]
IC50 (BCLXL [1]): 270 nM | Ki (BCLXL [2]): 640 nM

Cc1cc(N(CCCC(O)CN(C)CCN(C)C)c2nc(C(=O)O)cs2)nnc1Nc1nc2ccccc2s1 (stereo not shown) [Example 142, 2-[[6-(1,3-Benzothiazol-2-ylamino)-5-methyl-pyridazin-3-yl]-[5-[2-(dimethylamino)ethyl-methyl-amino]-4-hydroxy-pentyl]amino]thiazole-4-carboxylic acid]
IC50 (BCLXL [1]): 10 nM | Ki (BCLXL [2]): 50 nM

Cc1cc(N(C)c2nc(C(=O)O)c(C3CN(Cc4ccccc4)C3)s2)nnc1Nc1nc2ccccc2s1 [Example 145, 2-({6-[(1,3-Benzothiazol-2-yl)amino]-5-methylpyridazin-3-yl}(methyl)amino)-5-(1-benzylazetidin-3-yl)-1,3-thiazole-4-carboxylic acid]
IC50 (BCLXL [1]): 190 nM | Ki (BCLXL [2]): 180 nM

Cc1cc(N(CCCCO)c2nc(C(=O)O)c(CCCOc3ccc(C#CCN(C)CCCS(=O)(=O)O)cc3F)s2)nnc1Nc1nc2ccccc2s1 [Example 151, 2-[[6-(1,3-Benzothiazol-2-ylamino)-5-methyl-pyridazin-3-yl]-(4-hydroxybutyl)amino]-5-[3-[2-fluoro-4-[3-[methyl(3-sulfopropyl)amino]prop-1-ynyl]phenoxy]propyl]thiazole-4-carboxylic acid]
IC50 (MOLT-4 cells): 194 nM | IC50 (BCLXL [1]): 0.005 nM | Ki (BCLXL [2]): < 1 nM
